Laboratory results reported in patent US20070190039A1, “Novel cell lines, and methods of preparation and use thereof” (priority 2003, published 2007).

System: voltage-gated calcium current in HN2A12 cells
Format: cell-based, murine

| Molecule | inhibition of the voltage-gated calcium current | block of the calcium current (N-type part) |
| --- | --- | --- |
| [Cl][Cd][Cl] [CdCl2] | completely inhibited | – |
| ω-conotoxin-GVIA | – | about 38% |
